# Reference: patent EP0279458A1, “2-Propyl amine derivatives, processes for their preparation and their use” (GÖDECKE AKTIENGESELLSCHAFT, priority 1987, dated 1988)
# Counter-ions that a name gives are not always drawn.
# System: Proteinkinase C (PKC)
# Test: Inhibition of PS/DO-mediated protein kinase C activity (32P incorporation into histone H-1)
# Format: biochemical, Hühner
# Text: Zur Klärung des hemmenden Einflusses der erfindungsgemäßen Verbindungen der allgemeinen Formel I auf die Calcium- und Phospholipid-abhängige Proteinkinase (PKC) wurde diese Enzymaktivität ausgehend von einem Hühnermagenextrakt angereichert. In Anlehnung an in der Literatur beschriebene Reinigungsschritte (J. Biol. Chem. 260, S. 15718-15722, 1985) wurde bei der aus 2 Schritten bestehenden Reinigung die Eigenschaft des Enzyms ausgenutzt, in Anwesenheit von Calcium an Zellmembranen zu binden und durch Calciumchelatoren (EGTA) wieder abgelöst zu werden. Beim 1. Anreicherungsschritt erfolgte die Bindung der PKC an Membranen des Hühnermagenextraktes und im 2. Schritt an sogenannte Inside/Out-Vesikel von Erythrozyten. Nach Ablösung von den Erythrozyten-Membranen und Umpufferung lag die PKC-Präparation in 10 mM HEPES, 1 mM DTT, 0,1% PEG 20000, pH 7,5 vor und konnte unter diesen Bedingungen bei -70°C für mehrere Monate ohne Aktivitätsverlust gelagert werden.
# Die Aktivität des Enzyms wurde über den Einbau von Phosphor-32-markiertem Phosphat in das durch PKC phosphorylierbare Protein Histon H-1 bestimmt. Der Test enthält dabei folgende Kumponenten: 50 mM HEPES (pH 7,5), 1 mM DTT, 5 mM MgCl₂, ca. 10 µM freies Ca²⁺, 200 µg/ml Histon, 5 µg/ml Phosphatidylserin, 1 µg/ml 1,2-Diolein, 10 µM ATP, eine jeweils geeignete Menge der PKC-Präparation und gegebenenfalls eine Testsubstanz. Die unter Standardbedingungen gemessene Kinase-Aktivität in Anwesenheit von PKC-Aktivatoren (und ohne Testsubstanz) wurde jeweils als 100% gesetzt und die Hemmwirkung der Verbindungen der allgemeinen Formel I prozentual darauf bezogen.
# In Tabelle I ist die Inhibierung von PS/DO [PS: Phosphatidylserin, DO: 1,2-Diolein] vermittelter Proteinkinase C-Aktivität angegeben.
Structure (SMILES),"Inhibierung der PS/ DO-vermittelten PKC-Aktivität (%) (konz. 1x10^-5 mol/l, 10 µM)","Inhibierung der PS/ DO-vermittelten PKC-Aktivität (%) (konz. 1x10^-4 mol/l, 100 µM)",Inhibierung der PS/ DO-vermittelten PKC-Aktivität (%) (konz. 1x10^-6 mol/l)
"CCCCCCCCCCCCCCCCCCOCC(COC(C)=O)N(C)C (racemic) [Beispiel 1, (±)-2-Dimethylamino-3-octadecyloxy-1-propylacetat · Hydrochlorid]",28,–,–
"CCCCCCCCCCCCCCCCOCC(COC(C)=O)N(C)C (racemic) [Beispiel 1a, (±)-2-Dimethylamino-3-hexadecyloxy-1-propylacetat Oxalat]",23,–,–
"CCCCCCCCCCCCCCOCC(COC(C)=O)N(C)C (racemic) [Beispiel 1b, (±)-2-Dimethylamino-3-tetradecyloxy-1-propylacetat Oxalat]",36,–,–
"CCCCCCCCCCCCCCCCCCOCC(CO)NCC (racemic) [Beispiel 2, (±)-2-Ethylamino-octadecyloxy-1-propanol · Hydrochlorid]",91,99,23
"CCCCCCCCCCCCCCCCCCOCC(CO)N(CC)CC.O=C(O)C(=O)O (racemic) [Beispiel 2a, (±)-2-Diethylamino-3-octadecyloxy-1-propanol Oxalat]",78,100,11
"CCCCCCCCCCCCCCCCCCOCC(COC(=O)c1ccccc1)[N+](C)(C)C (racemic) [Beispiel 4, (±)-1-Benzoyloxy-3-octadecyloxy-2-propyl-trimethylammoniumjodid]",90,104,21
"CCCCCCCCCCCCCCCCCCSCC(N)CO (racemic) [Beispiel 5, (±)-2-Amino-3-octadecylthio-1-propanol]",39,–,12
"CCCCCCCCCCCCCCCCCCOCC(N)CO (racemic) [Beispiel 6, (±)-2-Amino-3-octadecyloxy-1-propanol, reference compound]",69,–,11
